ChEMBL document CHEMBL1136129, “Design and synthesis of poly(ADP-ribose)polymerase-1 (PARP-1) inhibitors. Part 3: In vitro evaluation of 1,3,4,5-tetrahydro-benzo[c][1,6]- and [c][1,7]-naphthyridin-6-ones” (Bioorg Med Chem Lett, 2003)
pEC50, pIC50: −log10 of the molar value.

Tests used:
[1] = target: Poly [ADP-ribose] polymerase 1 (Homo sapiens, UniProt P09874); assay: Inhibition of human recombinant Poly (ADP-ribose) polymerase 1
[2] = Effective concentration was determined from in vitro cellular peroxide toxicity assay; format: functional

Chain of Poly [ADP-ribose] polymerase 1 (P09874 whole entry): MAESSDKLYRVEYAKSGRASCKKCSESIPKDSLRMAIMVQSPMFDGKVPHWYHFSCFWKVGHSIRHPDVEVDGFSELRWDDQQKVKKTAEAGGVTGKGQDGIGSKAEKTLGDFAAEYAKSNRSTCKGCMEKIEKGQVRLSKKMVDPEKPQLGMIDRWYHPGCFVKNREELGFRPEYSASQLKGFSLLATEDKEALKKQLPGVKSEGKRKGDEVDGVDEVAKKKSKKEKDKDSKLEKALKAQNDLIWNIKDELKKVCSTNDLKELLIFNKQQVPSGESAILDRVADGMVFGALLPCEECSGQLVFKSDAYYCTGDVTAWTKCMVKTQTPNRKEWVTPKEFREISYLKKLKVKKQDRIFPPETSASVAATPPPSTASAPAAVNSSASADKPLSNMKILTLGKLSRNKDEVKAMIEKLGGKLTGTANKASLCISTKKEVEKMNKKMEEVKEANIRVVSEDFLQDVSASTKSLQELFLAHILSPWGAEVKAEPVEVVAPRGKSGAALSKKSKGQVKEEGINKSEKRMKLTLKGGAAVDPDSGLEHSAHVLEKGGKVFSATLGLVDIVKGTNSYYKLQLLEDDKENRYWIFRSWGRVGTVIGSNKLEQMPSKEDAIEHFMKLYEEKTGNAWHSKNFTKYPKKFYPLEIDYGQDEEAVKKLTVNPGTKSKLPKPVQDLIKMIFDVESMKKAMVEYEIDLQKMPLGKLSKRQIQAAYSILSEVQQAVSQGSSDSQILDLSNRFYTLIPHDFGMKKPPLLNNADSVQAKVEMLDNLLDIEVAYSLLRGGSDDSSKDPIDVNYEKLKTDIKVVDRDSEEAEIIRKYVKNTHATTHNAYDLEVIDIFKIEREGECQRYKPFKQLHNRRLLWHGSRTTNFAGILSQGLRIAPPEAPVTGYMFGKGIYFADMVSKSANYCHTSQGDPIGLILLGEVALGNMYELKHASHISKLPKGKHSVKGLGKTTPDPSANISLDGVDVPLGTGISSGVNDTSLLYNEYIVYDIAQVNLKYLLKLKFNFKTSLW

In the case of `O=C(CCN1CCCCC1)N1CCc2c(nc(O)c3ccccc23)C1`, the pIC50 [1] was 6.62.
Compound `O=C(CN1CCN(C2CCCC2)CC1)N1CCc2c(nc(O)c3ccccc23)C1` has a pEC50 [2] of 6.16 and a pIC50 [1] of 6.94.
With `Oc1nc2c(c3ccc(F)cc13)CNCC2` the pEC50 [2] was 7.40 and the pIC50 [1] was 7.70.
Work on `Oc1nc2c(c3ccccc13)CCNC2` yielded a pEC50 [2] of 7.35 and a pIC50 [1] of 7.52.
Work on `O=C(CN1CCC(N2CCCC2)CC1)N1CCc2nc(O)c3ccccc3c2C1` yielded a pEC50 [2] of 6.07 and a pIC50 [1] of 6.73.
For `O=C([C@@H]1CCCN1)N1CCc2c(nc(O)c3ccccc23)C1`, the pEC50 [2] was 7.00 and the pIC50 [1] was 7.51.
`N[C@@H](CCC(=O)N1CCc2nc(O)c3ccccc3c2C1)C(=O)O` showed a pEC50 [2] of 4.52 and a pIC50 [1] of 7.05.
Work on `O=c1[nH]c2c(c3ccccc13)CN(S(=O)(=O)CCN1CCC(N3CCCC3)CC1)CC2` yielded a pIC50 [1] of 6.45.
`Oc1nc2c(c3ccccc13)CCCC2` showed a pIC50 [1] of 6.78.
For `Oc1nc2c(c3ccccc13)CNCC2`, the pEC50 [2] was 7.40.
`O=C(CCN1CCC(N2CCCC2)CC1)N1CCc2c(nc(O)c3ccccc23)C1` gave a pIC50 [1] of 6.61.
In the case of `O=S(=O)(CCN1CCC(N2CCCC2)CC1)N1CCc2c(nc(O)c3ccccc23)C1`, the pEC50 [2] was 5.75 and the pIC50 [1] was 6.46.
`O=C(CCN1CCCCC1)N1CCc2nc(O)c3ccccc3c2C1` showed a pEC50 [2] of 7.24.
For `O=C(CCN1CCC(N2CCCC2)CC1)N1CCc2nc(O)c3cc(F)ccc3c2C1`, the pEC50 [2] was 6.21 and the pIC50 [1] was 7.49.
Compound `O=C(CN1CCCCC1)N1CCc2c(nc(O)c3ccccc23)C1` has a pEC50 [2] of 6.59.
`O=C(CN1CCCCC1)N1CCc2nc(O)c3ccccc3c2C1` gave a pEC50 [2] of 7.22.
Work on `O=C(CCN1CCCCC1)N1CCc2[nH]c(=O)c3cc(F)ccc3c2C1` yielded a pEC50 [2] of 7.52 and a pIC50 [1] of 7.60.
Work on `O=c1[nH]c2c(c3ccccc13)CCN(S(=O)(=O)CCN1CCCCC1)C2` yielded a pEC50 [2] of 5.55 and a pIC50 [1] of 6.42.
